Source: ChEMBL document CHEMBL1201862, “PubChem BioAssay data set” (2004)
Activity calls are given as the source filed them.

How the values were obtained:
[1] = molecular target: Melanocortin receptor 4 (Homo sapiens, UniProt P32245); test: inhibitors of MC4R cAMP signaling – cell-based, TR-FRET, biased antagonists, dose response (AID 602298); assay type: functional;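 further: antagonist potency against agonist-stimulated cAMP production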
[2] = cAMP pathway inhibition in counterscreen cell line – TR-FRET cAMP detection, counter-screen for MC4R biased antagonist project, dose response (AID 602305); assay type: functional, cell-based;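 further: U2OS cells stimulated with forskolin near its EC80 as the cAMP inducer; potency is for inhibition of forskolin-stimulated cAMP signaling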
[3] = molecular target: DNA (cytosine-5)-methyltransferase 1 (Homo sapiens, UniProt P26358); test: inhibition of DNA methylation by DNMT1 – biochemical, fluorescent molecular beacon, confirmation (AID 602386); assay type: functional
[4] = molecular target: T1, Carboxy-terminal domain RNA polymerase II polypeptide A small phosphatase 1 (Homo sapiens, UniProt Q9GZU7); test: CTDSP1 inhibitors, concentration-response, biochemical, absorbance readout, ultra-high-throughput screen actives (AID 540297); assay type: functional
T1 sequence (Q9GZU7 whole entry): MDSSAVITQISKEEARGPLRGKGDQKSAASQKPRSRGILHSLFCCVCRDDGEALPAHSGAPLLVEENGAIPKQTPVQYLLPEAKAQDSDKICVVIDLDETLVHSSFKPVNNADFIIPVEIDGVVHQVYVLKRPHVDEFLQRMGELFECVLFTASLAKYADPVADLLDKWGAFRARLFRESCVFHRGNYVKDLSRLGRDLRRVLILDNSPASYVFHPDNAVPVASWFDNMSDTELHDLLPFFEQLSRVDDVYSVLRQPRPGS

[5] = molecular target: Genome polyprotein (dengue virus type 2, UniProt P29990); test: flavivirus cap methylation enzyme inhibition – biochemical, confirmation dose response, primary screen (AID 588689); assay type: functional
[6] = molecular target: FAD-linked sulfhydryl oxidase ALR (Homo sapiens, UniProt P55789); test: ALR-catalysed DTT oxidation blockers – biochemical, H2O2 detection, luminescence, cherry-pick, dose response (AID 493248)
[7] = molecular target: Large T antigen (Simian virus 40, UniProt P03070); assay type: functional, Betapolyomavirus macacae;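 further: Confirmatory-stage PubChem screen for compounds that inhibit SV40 T antigen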
[8] = molecular target: T2, High affinity choline transporter 1 (Homo sapiens, UniProt Q9GZV3); test: human choline transporter blockers, potency – cell-based, 10-point CRC, membrane potential dye, dose response (AID 588401); assay type: functional;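 further: membrane potential dye fluorescence of choline-evoked depolarization via CHT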
T2 sequence (Q9GZV3 whole entry): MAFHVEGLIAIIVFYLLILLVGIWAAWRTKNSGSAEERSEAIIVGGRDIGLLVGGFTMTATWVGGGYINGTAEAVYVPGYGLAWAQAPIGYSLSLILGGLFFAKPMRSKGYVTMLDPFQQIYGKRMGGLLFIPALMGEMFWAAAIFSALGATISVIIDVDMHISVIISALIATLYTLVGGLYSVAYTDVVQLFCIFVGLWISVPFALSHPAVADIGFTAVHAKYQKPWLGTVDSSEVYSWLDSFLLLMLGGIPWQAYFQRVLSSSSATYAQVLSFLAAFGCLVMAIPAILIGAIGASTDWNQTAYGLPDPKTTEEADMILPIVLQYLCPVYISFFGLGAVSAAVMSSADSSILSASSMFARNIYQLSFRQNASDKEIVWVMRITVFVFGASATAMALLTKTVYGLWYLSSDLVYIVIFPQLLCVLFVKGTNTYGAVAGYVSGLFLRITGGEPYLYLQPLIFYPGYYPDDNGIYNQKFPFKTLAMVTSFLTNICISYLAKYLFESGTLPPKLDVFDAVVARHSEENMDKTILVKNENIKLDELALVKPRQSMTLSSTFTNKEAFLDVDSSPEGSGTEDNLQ

[9] = molecular target: T2, High affinity choline transporter 1; test: human choline transporter blockers, potency – cell-based, 5-point CRC, membrane potential dye, dose response (AID 504840); assay type: functional
[10] = test system: CHO; test: CHO cell viability loss, potency – luminescence, cytotoxicity control for TLR9-MyD88 binding inhibitor project, dose response (AID 588339); assay type: functional, cell-based, hamster; settings: Cricetulus griseus;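 further: CHO cells stably coexpressing TLR9 and MyD88 fusions from primary screen; compound exposure lasted 48 hours before viability readout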
[11] = molecular target: 26S proteasome non-ATPase regulatory subunit 14 (Homo sapiens, UniProt O00487); test: inhibition of proteasome subunit RPN11 – biochemical, fluorescence polarization, uHTS hits, confirmation (AID 602368); assay type: functional
[12] = molecular target: Prothrombin (Bos taurus, UniProt P00735); test: thrombin protease inhibitors – biochemical, fluorescence polarization, uHTS hits, dose response (AID 602369); assay type: functional
[13] = molecular target: 72 kDa type IV collagenase (Homo sapiens, UniProt P08253); test: Dose Response validation of uHTS RPN11 inhibitor hits using a MMP-2 Fluorescence assay.; assay type: functional
[14] = molecular target: Beta Lactamase (Pseudomonas aeruginosa, UniProt Q932Y6); test: BLA reporter interference, concentration series – BLA reporter cells, FRET fluorescence, artefact control for TLR9-MyD88 binding inhibitor project, dose response (AID 588341); assay type: cell-based;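 further: cell based assay in CHO-K1 cells stably expressing beta-lactamase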
[15] = molecular target: T3, Coagulation factor XII (Homo sapiens, UniProt P00748); assay type: functional;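 further: activated factor XIIa alpha cleaving a fluorogenic AMC peptide substrate; inhibitor potency from loss of enzyme activity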
T3 sequence (P00748 whole entry): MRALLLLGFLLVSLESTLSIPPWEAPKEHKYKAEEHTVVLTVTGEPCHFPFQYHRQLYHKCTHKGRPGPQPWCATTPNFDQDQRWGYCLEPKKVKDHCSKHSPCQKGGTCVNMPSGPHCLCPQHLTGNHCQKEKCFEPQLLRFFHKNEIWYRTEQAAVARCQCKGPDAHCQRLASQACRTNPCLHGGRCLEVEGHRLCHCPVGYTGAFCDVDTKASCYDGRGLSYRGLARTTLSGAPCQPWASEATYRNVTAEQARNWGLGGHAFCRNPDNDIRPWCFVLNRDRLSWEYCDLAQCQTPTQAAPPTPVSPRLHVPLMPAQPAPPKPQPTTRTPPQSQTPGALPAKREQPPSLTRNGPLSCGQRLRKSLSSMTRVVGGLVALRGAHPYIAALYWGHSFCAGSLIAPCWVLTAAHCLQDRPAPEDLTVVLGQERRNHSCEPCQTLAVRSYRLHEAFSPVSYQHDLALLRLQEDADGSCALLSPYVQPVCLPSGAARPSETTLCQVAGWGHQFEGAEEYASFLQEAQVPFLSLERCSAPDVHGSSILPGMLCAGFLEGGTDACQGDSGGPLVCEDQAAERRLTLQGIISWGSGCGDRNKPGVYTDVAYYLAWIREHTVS

[16] = test system: Streptococcus; test: GAS UMAA2166 growth inhibition – luminescence, BacTiterGlo, counter-screen for streptokinase expression inhibitor project, dose response (AID 1915); assay type: functional, organism-based;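 further: potency for reduction of bacterial viability or growth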
[17] = molecular target: T4, Zinc finger protein mex-5 (Caenorhabditis elegans, UniProt Q9XUB2); test: potency of MEX-5 RNA-binding blockers – biochemical, C. elegans, fluorescence polarization, dose response (AID 1960)
T4 sequence (Q9XUB2 whole entry): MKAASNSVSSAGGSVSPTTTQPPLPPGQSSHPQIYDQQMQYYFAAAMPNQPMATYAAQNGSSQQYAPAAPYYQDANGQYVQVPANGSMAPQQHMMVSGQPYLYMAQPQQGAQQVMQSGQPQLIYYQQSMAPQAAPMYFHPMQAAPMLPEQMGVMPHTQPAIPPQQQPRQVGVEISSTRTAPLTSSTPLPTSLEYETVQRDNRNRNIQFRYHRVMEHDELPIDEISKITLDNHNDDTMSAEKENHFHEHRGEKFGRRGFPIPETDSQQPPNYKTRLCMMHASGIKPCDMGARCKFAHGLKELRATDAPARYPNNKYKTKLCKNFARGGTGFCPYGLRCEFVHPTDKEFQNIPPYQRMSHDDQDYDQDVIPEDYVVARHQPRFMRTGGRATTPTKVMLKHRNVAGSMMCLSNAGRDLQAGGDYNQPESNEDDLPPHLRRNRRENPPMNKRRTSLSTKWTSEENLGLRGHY

[18] = molecular target: T5, RNA-binding protein pos-1 (Caenorhabditis elegans, UniProt G5EF15); test: disruptors of C. elegans POS-1 RNA interaction – biochemical, fluorescence polarization, dose response (AID 1964);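 further: purified POS-1 fused to maltose binding protein made in E. coli; potency of compounds blocking POS-1 binding to fluorescent RNA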
T5 sequence (G5EF15 whole entry): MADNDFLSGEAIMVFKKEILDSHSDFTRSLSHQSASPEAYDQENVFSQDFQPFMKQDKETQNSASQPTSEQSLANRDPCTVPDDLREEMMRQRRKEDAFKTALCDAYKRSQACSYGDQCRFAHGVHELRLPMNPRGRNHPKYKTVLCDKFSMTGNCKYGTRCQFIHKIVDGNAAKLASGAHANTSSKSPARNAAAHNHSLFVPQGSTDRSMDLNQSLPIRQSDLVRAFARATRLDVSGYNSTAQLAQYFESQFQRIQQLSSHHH

[19] = molecular target: T6, Streptokinase A (Streptococcus pyogenes serotype M1, UniProt P10520); test: viability-normalized secreted streptokinase activity reduction – plasminogen activation absorbance, OD405, dose response (AID 1914); assay type: functional, Streptococcus pyogenes M1 GAS;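 further: secreted streptokinase activity via plasminogen activation per viability signal from cell pellet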
T6 sequence (P10520 whole entry): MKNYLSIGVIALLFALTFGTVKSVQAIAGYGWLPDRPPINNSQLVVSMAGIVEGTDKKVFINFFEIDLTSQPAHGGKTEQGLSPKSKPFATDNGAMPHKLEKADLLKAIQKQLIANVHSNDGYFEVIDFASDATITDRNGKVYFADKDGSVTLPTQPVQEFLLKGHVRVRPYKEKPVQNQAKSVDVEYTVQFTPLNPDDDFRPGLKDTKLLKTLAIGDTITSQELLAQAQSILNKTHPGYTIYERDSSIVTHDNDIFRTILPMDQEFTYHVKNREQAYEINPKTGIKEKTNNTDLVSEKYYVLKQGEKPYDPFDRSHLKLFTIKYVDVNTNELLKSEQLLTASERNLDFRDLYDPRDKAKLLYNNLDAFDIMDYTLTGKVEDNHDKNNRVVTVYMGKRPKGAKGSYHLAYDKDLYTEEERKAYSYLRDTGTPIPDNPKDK

[20] = viability loss in HEK293T cells – cell-based, cherry-picks, cytotoxicity control for HIV Vif inhibitor project, dose response (AID 652208); assay type: functional
[21] = test system: H9c2; test: cells; assay type: functional, cell-based; settings: Rattus norvegicus, H9c2, Myocardium;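 further: confirmatory concentration-response retest of ultra-high-throughput screening hits for modulation of myocardial damage; cell death induced by hydrogen peroxide oxidative stress; compound pretreatment for 60 min then peroxide exposure for 2 h; potency is for protecting the cells against peroxide damage rather than for killing them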
[22] = molecular target: Ras and Rab interactor 1/Tyrosine-protein kinase ABL1 (Homo sapiens, UniProt P00519+Q13671); assay type: functional;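 further: biochemical TR-FRET dose-response test measuring inhibition of binding between Rin1 and Abl proteins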
[23] = molecular target: T7, Apoptotic protease-activating factor 1 (Homo sapiens, UniProt O14727); assay type: functional
T7 sequence (O14727 whole entry): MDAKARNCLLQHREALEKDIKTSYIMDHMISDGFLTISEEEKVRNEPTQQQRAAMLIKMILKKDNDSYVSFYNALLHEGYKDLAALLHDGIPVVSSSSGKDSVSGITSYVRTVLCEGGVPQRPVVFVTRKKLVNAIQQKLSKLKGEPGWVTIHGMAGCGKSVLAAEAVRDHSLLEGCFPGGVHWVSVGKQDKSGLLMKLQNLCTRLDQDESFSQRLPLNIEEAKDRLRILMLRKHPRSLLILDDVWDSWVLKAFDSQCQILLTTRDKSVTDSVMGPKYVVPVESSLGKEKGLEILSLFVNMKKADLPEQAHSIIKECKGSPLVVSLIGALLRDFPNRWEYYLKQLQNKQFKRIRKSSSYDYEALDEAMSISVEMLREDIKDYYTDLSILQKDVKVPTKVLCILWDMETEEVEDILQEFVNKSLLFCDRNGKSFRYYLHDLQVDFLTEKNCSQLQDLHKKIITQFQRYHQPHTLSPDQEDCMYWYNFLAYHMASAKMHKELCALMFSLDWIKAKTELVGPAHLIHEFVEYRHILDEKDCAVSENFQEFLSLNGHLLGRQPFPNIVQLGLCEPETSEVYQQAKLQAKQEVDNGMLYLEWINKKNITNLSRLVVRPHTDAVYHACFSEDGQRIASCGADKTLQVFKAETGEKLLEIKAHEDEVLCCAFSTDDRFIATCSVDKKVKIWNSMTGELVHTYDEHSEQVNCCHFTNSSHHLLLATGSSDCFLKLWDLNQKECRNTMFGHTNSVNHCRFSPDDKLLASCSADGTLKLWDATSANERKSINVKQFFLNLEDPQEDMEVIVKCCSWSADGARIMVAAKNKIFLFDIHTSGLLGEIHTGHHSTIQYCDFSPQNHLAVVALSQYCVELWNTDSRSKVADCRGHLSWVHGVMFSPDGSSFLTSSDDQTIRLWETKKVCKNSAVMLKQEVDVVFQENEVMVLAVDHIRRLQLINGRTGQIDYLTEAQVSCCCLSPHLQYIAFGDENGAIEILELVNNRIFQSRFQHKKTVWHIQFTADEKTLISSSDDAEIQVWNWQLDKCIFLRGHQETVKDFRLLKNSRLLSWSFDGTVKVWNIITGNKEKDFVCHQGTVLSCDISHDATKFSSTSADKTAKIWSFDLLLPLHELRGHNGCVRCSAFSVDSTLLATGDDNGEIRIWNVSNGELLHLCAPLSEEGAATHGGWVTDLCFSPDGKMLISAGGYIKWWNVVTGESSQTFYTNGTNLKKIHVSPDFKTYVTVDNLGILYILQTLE

Sequence of Melanocortin receptor 4 (P32245 whole entry): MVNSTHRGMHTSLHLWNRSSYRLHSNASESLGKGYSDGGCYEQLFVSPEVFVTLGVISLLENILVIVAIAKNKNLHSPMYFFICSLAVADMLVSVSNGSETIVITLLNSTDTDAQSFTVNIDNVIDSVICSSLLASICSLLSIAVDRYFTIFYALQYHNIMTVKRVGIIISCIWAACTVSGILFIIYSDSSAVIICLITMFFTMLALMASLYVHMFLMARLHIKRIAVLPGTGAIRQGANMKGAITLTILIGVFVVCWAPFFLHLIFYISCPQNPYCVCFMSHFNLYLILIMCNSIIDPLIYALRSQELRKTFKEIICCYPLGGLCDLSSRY
Sequence of Beta Lactamase (Q932Y6 whole entry): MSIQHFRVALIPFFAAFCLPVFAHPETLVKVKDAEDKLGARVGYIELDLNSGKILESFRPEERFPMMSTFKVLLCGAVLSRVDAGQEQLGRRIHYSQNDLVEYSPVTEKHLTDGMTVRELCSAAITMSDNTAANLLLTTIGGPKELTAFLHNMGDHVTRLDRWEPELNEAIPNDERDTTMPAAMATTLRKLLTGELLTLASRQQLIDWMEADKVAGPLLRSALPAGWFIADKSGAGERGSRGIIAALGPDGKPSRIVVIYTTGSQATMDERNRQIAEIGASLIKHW
Sequence of 26S proteasome non-ATPase regulatory subunit 14 (O00487 whole entry): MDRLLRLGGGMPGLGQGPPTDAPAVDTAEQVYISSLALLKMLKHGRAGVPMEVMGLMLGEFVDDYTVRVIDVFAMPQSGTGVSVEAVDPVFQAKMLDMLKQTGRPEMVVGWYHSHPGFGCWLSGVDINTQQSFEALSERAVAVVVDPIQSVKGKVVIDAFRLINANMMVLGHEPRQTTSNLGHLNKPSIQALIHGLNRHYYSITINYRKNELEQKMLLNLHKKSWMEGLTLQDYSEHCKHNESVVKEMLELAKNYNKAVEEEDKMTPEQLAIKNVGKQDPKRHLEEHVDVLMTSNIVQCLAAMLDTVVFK
Sequence of Genome polyprotein (P29990 2492-3391 limits assumed): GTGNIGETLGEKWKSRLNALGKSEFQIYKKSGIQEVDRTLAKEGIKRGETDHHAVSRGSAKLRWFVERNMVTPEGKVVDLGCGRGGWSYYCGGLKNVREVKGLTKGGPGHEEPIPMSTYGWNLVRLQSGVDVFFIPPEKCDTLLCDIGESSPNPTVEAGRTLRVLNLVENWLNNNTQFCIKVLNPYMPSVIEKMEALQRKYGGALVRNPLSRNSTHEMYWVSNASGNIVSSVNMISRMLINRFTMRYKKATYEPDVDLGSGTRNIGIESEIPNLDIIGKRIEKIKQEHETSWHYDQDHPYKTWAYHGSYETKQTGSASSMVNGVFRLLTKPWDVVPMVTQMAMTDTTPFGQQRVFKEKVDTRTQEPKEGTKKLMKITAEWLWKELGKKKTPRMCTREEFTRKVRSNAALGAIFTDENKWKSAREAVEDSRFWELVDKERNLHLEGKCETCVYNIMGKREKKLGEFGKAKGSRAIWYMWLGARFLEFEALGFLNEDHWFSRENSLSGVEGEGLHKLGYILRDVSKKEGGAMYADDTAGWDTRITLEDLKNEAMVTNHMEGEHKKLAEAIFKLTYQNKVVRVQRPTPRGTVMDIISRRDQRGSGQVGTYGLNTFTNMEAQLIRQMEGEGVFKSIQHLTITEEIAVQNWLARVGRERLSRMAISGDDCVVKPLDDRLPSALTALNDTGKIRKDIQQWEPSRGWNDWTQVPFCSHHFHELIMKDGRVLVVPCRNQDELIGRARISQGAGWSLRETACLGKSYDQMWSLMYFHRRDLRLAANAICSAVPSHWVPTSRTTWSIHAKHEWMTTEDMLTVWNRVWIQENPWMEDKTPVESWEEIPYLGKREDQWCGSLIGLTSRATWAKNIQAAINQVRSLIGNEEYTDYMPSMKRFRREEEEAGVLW
Sequence of DNA (cytosine-5)-methyltransferase 1 (P26358 whole entry, the tested form may be a part): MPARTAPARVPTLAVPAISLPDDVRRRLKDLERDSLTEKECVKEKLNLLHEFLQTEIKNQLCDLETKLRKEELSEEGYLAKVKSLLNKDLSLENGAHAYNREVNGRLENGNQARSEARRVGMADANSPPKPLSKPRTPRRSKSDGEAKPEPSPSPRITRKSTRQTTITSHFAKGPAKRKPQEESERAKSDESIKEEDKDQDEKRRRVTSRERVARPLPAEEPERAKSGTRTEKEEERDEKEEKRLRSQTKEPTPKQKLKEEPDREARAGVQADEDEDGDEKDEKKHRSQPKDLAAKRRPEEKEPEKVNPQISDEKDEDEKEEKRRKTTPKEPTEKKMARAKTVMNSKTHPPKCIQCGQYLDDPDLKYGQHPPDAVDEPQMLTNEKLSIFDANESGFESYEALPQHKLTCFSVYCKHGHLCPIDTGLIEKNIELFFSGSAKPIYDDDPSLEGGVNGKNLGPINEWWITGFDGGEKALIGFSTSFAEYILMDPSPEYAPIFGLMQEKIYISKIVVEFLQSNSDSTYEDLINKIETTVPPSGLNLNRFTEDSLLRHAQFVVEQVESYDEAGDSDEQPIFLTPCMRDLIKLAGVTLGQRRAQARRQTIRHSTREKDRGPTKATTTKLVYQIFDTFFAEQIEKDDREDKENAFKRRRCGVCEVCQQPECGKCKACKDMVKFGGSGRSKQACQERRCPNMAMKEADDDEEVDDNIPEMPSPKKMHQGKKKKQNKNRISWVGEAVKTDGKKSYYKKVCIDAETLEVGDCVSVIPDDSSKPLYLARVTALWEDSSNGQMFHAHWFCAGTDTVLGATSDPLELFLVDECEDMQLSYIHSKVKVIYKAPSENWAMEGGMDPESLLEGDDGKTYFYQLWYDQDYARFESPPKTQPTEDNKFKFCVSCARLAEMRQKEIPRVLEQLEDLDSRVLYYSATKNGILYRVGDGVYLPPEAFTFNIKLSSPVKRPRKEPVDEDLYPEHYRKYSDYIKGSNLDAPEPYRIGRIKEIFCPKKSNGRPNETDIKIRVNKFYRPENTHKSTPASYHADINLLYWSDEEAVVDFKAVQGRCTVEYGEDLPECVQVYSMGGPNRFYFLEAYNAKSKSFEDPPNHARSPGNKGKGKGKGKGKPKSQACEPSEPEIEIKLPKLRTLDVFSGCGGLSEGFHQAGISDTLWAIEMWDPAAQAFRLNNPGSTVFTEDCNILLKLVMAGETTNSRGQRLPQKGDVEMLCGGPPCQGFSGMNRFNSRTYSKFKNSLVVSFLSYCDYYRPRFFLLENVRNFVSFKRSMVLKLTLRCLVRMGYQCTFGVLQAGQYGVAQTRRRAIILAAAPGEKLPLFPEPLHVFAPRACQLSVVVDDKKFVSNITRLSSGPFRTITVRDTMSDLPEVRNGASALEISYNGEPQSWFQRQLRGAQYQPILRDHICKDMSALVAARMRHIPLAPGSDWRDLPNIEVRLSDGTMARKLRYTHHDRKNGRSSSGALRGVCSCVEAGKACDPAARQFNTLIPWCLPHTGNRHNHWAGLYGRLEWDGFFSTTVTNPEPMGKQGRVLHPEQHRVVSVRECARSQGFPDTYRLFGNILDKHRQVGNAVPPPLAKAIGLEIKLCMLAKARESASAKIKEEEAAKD
Sequence of 72 kDa type IV collagenase (P08253 whole entry): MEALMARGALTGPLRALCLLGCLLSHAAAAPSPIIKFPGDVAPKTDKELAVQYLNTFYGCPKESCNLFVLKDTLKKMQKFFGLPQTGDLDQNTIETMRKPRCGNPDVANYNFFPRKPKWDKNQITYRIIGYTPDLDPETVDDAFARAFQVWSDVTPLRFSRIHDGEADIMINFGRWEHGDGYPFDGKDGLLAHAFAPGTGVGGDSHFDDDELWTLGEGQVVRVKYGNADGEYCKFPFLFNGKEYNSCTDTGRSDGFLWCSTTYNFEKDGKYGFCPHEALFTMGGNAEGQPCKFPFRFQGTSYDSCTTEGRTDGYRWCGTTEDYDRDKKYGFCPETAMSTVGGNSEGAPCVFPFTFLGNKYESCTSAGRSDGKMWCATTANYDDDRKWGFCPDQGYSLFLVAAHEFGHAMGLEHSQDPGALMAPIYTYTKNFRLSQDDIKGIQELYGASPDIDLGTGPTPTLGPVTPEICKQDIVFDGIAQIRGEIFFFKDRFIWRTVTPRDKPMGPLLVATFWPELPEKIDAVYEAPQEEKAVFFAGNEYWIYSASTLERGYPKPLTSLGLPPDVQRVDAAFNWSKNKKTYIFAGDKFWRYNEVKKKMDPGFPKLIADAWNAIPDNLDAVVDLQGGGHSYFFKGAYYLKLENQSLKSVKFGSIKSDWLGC
Sequence of Large T antigen (P03070 whole entry): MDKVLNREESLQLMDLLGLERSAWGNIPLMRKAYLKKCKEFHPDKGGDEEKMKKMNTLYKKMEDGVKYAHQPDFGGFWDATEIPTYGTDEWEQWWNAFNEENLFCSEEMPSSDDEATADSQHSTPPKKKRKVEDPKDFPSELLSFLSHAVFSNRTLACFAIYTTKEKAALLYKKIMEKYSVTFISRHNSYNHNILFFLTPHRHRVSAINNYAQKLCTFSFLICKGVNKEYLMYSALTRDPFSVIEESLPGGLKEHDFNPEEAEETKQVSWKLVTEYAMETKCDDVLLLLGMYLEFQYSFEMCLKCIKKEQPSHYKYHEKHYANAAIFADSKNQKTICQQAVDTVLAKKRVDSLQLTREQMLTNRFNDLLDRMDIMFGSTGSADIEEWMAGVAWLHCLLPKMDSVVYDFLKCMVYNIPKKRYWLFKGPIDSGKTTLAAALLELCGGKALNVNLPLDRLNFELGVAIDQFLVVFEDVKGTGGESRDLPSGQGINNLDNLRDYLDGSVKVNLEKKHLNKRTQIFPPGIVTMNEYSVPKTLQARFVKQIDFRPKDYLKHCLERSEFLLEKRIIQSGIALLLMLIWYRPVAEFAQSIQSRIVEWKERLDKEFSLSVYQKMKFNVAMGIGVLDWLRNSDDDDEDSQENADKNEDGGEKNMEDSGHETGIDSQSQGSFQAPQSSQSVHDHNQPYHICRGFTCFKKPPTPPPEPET
Sequence of FAD-linked sulfhydryl oxidase ALR (P55789 whole entry): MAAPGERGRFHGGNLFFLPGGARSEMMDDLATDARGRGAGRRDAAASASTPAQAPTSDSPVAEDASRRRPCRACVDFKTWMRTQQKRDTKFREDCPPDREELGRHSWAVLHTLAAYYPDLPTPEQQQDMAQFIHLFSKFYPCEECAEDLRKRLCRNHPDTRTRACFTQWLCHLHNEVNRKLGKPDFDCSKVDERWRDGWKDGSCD

## COC(=O)C(CC(C)C)NC(=O)/C=C/c1ccc(Cl)cc1 (stereo unspecified)
[1]
  IC50: > 64.6 µM (inactive)
[2]
  IC50: > 64.6 µM (inactive)

## O=C1NN(c2ccccc2)C(=O)/C1=C/c1ccc(-c2ccc(C(=O)O)cc2)o1
[3]
  IC50: 10.2 µM (active)
[4]
  IC50: 4.57 µM (active)
[5]
  IC50: > 100 µM (active)
[6]
  AC50: 0.11 µM (active)
[7]
  IC50: 20.6 µM (active)

## N#C/C(=C(/O)c1ccccc1F)c1nc2cc(C(F)(F)F)ccc2s1
[8]
  IC50: 6.31 µM (active)
[9]
  IC50: 10 µM (active)

## O=[N+]([O-])c1ccc(N/N=C/c2c[nH]c3ccccc23)cc1
[10]
  IC50: 47.2 µM (inactive)
[11]
  IC50: 1.77 µM (active)
[12]
  IC50: 2.05 µM (active)
[13]
  IC50: > 100 µM (inactive)
[14]
  IC50: 10.2 µM (inactive)

## CCN1CCN(c2ncnc3scc(-c4ccc(C)cc4)c23)CC1
[8]
  IC50: 1.5 µM (active)
[9]
  IC50: 2.09 µM (active)

## COc1ccc(CCn2c(C)cc(C(=O)CCl)c2C)cc1OC
[15]
  IC50: > 50 µM (inactive)
[1]
  IC50: > 64.6 µM (inactive)
[2]
  IC50: > 64.6 µM (inactive)

## CC1(C(=O)N/N=C/c2c(F)c(F)c(F)c(F)c2F)CC1(Cl)Cl (stereo unspecified)
[1]
  IC50: > 7.17 µM (active)
[2]
  IC50: > 64.6 µM (inactive)

## Nc1c(C(=O)Nc2nc3ccccc3s2)sc2nc(-c3cccs3)ccc12
[16]
  EC50: 109 µM (active)
[17]
  EC50: > 150 µM (inconclusive)
[18]
  EC50: 19.2 µM (inconclusive)
[10]
  IC50: 5.51 µM (active)
[19]
  EC50: > 150 µM (not active)
[20]
  AC50: 7.27 µM (active)
[14]
  IC50: 3.93 µM (active)

## Cc1ccc(-c2nn3c(-c4ccco4)nnc3c3ccccc23)cc1S(=O)(=O)NCC1CCCO1 (stereo unspecified)
[21]
  IC50: > 79 µM (inactive)
[22]
  IC50: > 73.5 µM (inactive)
[23]
  IC50: 5.73 µM (active)
